Results as given in PubChem BioAssay AID652156 (NMMLSC, 2013).

test system: ER-HoxA9 myeloid cells, GFP+/MAC1+ differentiation, flow cytometry; assay: inducers of GFP+/MAC1+ differentiation in arrested progenitors – ER-HoxA9 cells, flow cytometry, Powder Set01, dose response (AID 652156)

| EC50 [nM] | Compound |
| --- | --- |
| 1330 | O=C(O)c1cccnc1Nc1ccc(Cl)cc1 |
| 2090 | O=C(CCNC(=O)c1ccc(Cl)cc1)NC1CCCc2ccccc21 (stereo not drawn) |
| 930 | Cc1ccc(Nc2nc(=O)c3cccnc3s2)c(Br)c1 |
